The values below come from ChEMBL document CHEMBL1137029, “Substituted benzylamino-6-(trifluoromethyl)pyrimidin-4(1H)-ones: a novel class of selective human A-FABP inhibitors” (Bioorg Med Chem Lett, 2004).

Molecules are shown by their SMILES. Where only a bound is given, the exact number is not on record here.

As a reminder, the IC50 is the concentration needed to halve the response being measured. Low readings indicate inhibition by little substance, high ones a need for much substance.

The target in this assay is Fatty acid-binding protein, heart (Homo sapiens, UniProt P05413).
Fatty acid-binding protein, heart, sequence (P05413 whole entry): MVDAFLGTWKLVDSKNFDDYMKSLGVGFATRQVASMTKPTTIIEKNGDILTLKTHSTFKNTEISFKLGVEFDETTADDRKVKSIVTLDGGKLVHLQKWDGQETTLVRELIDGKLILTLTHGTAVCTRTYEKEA

`Oc1cc(C(F)(F)F)nc(NCc2ccc(Cl)cc2)n1` yielded an IC50 of more than 100 µM.

In turn, `CN(Cc1ccccc1)c1nc(C(F)(F)F)cc(=O)[nH]1` came in with a half-maximal inhibitory concentration (IC50) of more than 100 µM.
